In brackets after ≈: the same amount, converted by molar mass.
How the values were obtained:
M17-TAU P301L cells [1] = assay: TAU-induced toxicity: LDH leakage of retinoic acid incubated M17-TAU P301L cells; format: cell-based, human; settings: for EC50: Homo sapiens, reduction of LDH activity of retinoic acid incubated M17-TAU P301L cells, read-out: EC50 (μg/ml) TAU-induced toxicity
From the text: A TAU expression plasmid was constructed by sub-cloning the cDNA of human TAU-P301L (encoding for TAU with proline 301 substituted by a leucine residue) into mammalian expression vector pcDNA3.1 resulting in plasmid pcDNA3.1-TAU P301L. Plasmids pcDNA3.1 and pcDNA3.1-TAU P301L were transfected to human neuroblastoma cells ([…]; ATCC No. CRL-2267) and independent clonal lines with the plasmids stably integrated into the genome were selected. […] Expression of the TAU P301L genes in the cell lines was confirmed by Western analysis.
In degenerated or dead cells lactate dehydrogenase (LDH) leaks out of the cells into the extracellular environment due to a loss of plasma-membrane integrity. This principle was used to determine cytotoxicity by quantifying the level of leaked LDH into the growth medium relative to the sum of total LDH activity from living cells and dead cells.
The detailed method for determining cytotoxicity was as follows: From appropriate precultures of M17-3.1 and M17-TAU(P301L) cells were seeded at 2500 cells/cm2 in Optimem Reduced Serum without phenol red (Gibco, Cat. 31985-047) supplemented with 1% fetal calf serum, 1 mM sodium pyruvate, 1× non-essential amino acids, 500 μg/ml G418 0.5× antibiotic/antimycotic. After 3 hours of incubation at 37° C./5% CO2 1 volume of Optimem Reduced Serum (same as described above; except without fetal calf serum) supplemented with 2.5 μM all-trans retinoic acid (ATRA) was added. The cells were further incubated for 7 days. Subsequently, LDH activity was determined using Promega Cytotox 96 Non-Radioactive cytotoxicity assay, (Cat. G1780) according the supplier's instructions.
The M17-TAU P301L cell line made it possible to assess the ability of novel compounds to counteract TAU cytotoxicity. […] These measurements were used to calculate EC50 values.
Exemplary compounds of the present invention are shown in Table 1, with their chemical structure and their EC50 value (expressed in μg/ml) as determined from example 12 in the TAU-induced toxicity experiment.

M17-TAU P301L cells [2] = assay: Cytosolic calcium (Fura-2) in M17-TAU P301L cell model of calcium dyshomeostasis; format: cell-based; settings: Homo sapiens, Fura-2 340/380 nm ratio, read-out: EC50 value of lowering cytosolic Ca^2+
Description: Cystosic calcium was measured by loading the cells with a medium containing Fura-2 AM (Sigma-Aldrich), a cell permeable fluorescent probe for Ca^2+. Fura-2-AM was dissolved in DMSO plus 20% Pluronic Acid (F-127) (Invitrogen) in a 1:1 ratio and diluted in medium to a final concentration of 0.5 μM. To this loading medium probenecid (Sigma-Aldrich) was added to a final concentration of 2.5 mM. Then, culture medium was replaced by loading medium and after incubation for 1 hour at 37° C. cells were washed twice and replaced with HBSS (Gibco) supplemented with 0.2% FBS and 0.02M HEPES. Next, changes in cytosolic calcium were measured using a FlexStation 3 microplate reader (Molecular Devices) and quantified ratiometric, by calculating changes in the amount of cytosolic Ca^2+ bound Fura-2 (fluorescence intensity at 340 nm) relative to the amount of Ca^2+ unbound Fura-2 (fluorescence intensity at 380 nm). Data was processed in SoftMax Pro 5.4.6 software (Molecular Devices).
In addition compounds were tested to lower the elevated cytosolic calcium levels. In the presence of the compounds these cytosolic calcium levels were decreased.
Compounds were tested to lower the elevated cytosolic Ca^2+ levels in the cell model of calcium dyshomeostasis (FIG. 1B) as described in example 10.
Exemplary compounds of the present invention are shown in Table 2, with their chemical structure and their EC50 value of lowering cytosolic Ca^2+ (expressed in μg/ml).

[3] = tested on: primary rat hippocampal neurons; assay: Ex-vivo inhibition of oligomeric amyloid beta (ADDL) toxicity in primary neurons; format: cell-based; settings: 100 ng/mL, 1000 nM ADDL, 24 h, FIG. 4
Description: An exemplary compound of this invention was tested for its ability to inhibit toxicity elicited by oligomeric amyloid beta (Aβo). Neurons from rat embryos were harvested and cultured using standard methods (such as used in Schlager et al., 2014. Cell reports, 8(5), pp. 1248-56.). Differentiated neurons were challenged with Apo and viability was quantified.
At day in-vitro 19 days after isolation primary hippocampal neurons were transfected with Marcks-GFP in order to visualize the neurons with fluorescence microscopy.
ADDL (Abeta-derived diffusible ligands) preparation (representing Aβo) was done according to Klein (Klein, 2002. Neurochemistry international, 41(5), pp. 345-52.). Abeta 1-42 was purchased from AnaSpec Inc. and dissolved in HFIP to homogenize the peptide. HFIP was then evaporated in a speedvac and Abeta film was dried at −20° C. overnight over desiccant. Abeta film was then resolubilised in 100% DMSO and further diluted (1/25) in Ham's F12 medium. […]
The solution was centrifuged at 14.000×g for 10 min at 4° C. and supernatants were transferred to fresh tubes and protein concentration determined by NanoDrop®.
At day in-vitro 21 primary rat hippocampal neurons were treated with equal volume of Blank/ADDL solution amounting to 0 and 1000 nM ADDL. […] Viability was assessed using the Live-Dead assay from Thermo Fisher Catalog number: L3224. […]

VGCC = assay: Ex-vivo inhibition of VGCC activity: KCl-induced Ca2+ influx in primary neurons (Fura2); format: cell-based; settings: 1.5 μm compound, 45 mM KCl, primary neurons from mouse embryos, FIG. 5, p<0.0001
Description: Compound 6 was tested for its ability to inhibit VGCC activity in primary neurons. Neurons from mouse embryos were harvested and cultured using standard methods (such as used in Schlager et al., 2014. Cell reports, 8(5), pp. 1248-56). To stimulate VGCC activity, neurons were depolarized using 45 mM KCl and incubated with vehicle or compound at a concentration of 1.5 μm. Calcium influx was measured using fluorescent cytosolic Ca^2+ detection reagent Fura2.
Changes in cytosolic Ca^2+ concentrations were measured after loading the cells with Fura-2 AM (Sigma-Aldrich), a cell permeable fluorescent probe for Ca^2+. Briefly, Fura-2-AM was dissolved in DMSO plus 20% Pluronic Acid (F-127) (Invitrogen) in a 1:1 ratio and diluted in medium to a final concentration of 0.5 μM. […] Next, changes in cytosolic calcium were measured using a FlexStation 3 microplate reader (Molecular Devices) and quantified ratiometric, by calculating changes in the amount of cytosolic Ca^2+ bound Fura-2 (fluorescence intensity at 340 nm) relative to the amount of Ca^2+ unbound Fura-2 (fluorescence intensity at 380 nm). […]
Compounds were tested at […] for their ability to inhibit Ca^2+ influx in primary neurons (FIG. 5) as described in Example 14. […] The percentage (%) inhibition of Ca^2+ influx relative to vehicle treated neurons was calculated.

TAU phosphorylation = assay: In vivo inhibition of TAU phosphorylation in brain of APP*PS1 mice (Western analysis); settings: 20 mg/kg subcutaneously daily for 2 weeks, 5 month old APP*PS1 mice, versus vehicle, FIG. 6
From the text: FIG. 6 represents graphs plotting quantifications of pathologically phosphorylated TAU species determined by Western blots of brain extracts from transgenic APP mice treated with vehicle or with exemplary Compound 6. The graphs depict the mean normalized TAU signals±SEM. ** indicate p<0.01 relative to vehicle treated animals. The TAU signals were obtained by using antibodies directed against: • (A) AT8 p-TAU, indicates the antibody recognising p-TAU phosphorylated on serine 202 and threonine 205 • (B) AD2 p-TAU, indicates the antibody recognising p-TAU phosphorylated on serines 396 and 404 • (C) phosphorylated TAU on T231 • (D) phosphorylated TAU on S262.
Transgenic human 5 month old APP*PS1 mice (The Journal of Neuroscience, Sep. 1, 2000, 20(17):6452-6458) were treated daily subcutaneously with 20 mg/kg Compound 6 for 2 weeks.
At the end of the treatment period, mice were sacrificed and the corresponding brains were used for biochemical analysis.

[4] = tested on: Transgenic human APP mice; assay: Morris Water Maze cognition test in transgenic APP mice; format: in vivo; settings: 20 mg/kg subcutaneously daily for 8 weeks, versus vehicle
Description: P-value refers to the treatment of transgenic APP mice with exemplary Compound 6 versus vehicle.
Transgenic human of 4 months of age APP mice (THE JOURNAL OF BIOLOGICAL […] Vol. 274, No. 10, Issue of March 5, pp. 6483-6492, 1999) were treated subcutaneously, daily for 8 weeks with Compound 6 at 20 mg/kg. Cognition was assessed using the Morris Water Maze test. […] After the learning phase a probe test was conducted in which the platform was removed from the water bath to evaluate the spatial memory of the location of the platform.
Both indices indicate that compound treated mice have improved cognitive performance almost identical to wild type controls compared to vehicle treated mice.

CA1 pyramidal neurons = assay: Neuronal firing rate in brain slices from tgAPP mice (patch clamp, CA1); format: cell-based, mouse; settings: 2 μM, 1 hr perfusion, higher stimuli, FIG. 8
Description: Brain slices from wild type and tgAPP mice were incubated with DMSO or Compound 6. Neurons were stimulated with increasing currents and the frequency of action potentials (firing rate) was measured.
In tgAPP mice the frequency of action potentials at higher stimuli was higher.
Acute sagittal brain slices from WT or hAPP mice were prepared by decapitation of the mice after isoflurane anaesthesia. Brains were removed quickly and immersed during 3-4 min in ice-cold freshly prepared cutting artificial cerebrospinal fluid (cutting aCSF) containing (in mM) 214 sucrose, 2.5 KCl, 2 CaCl2, 2 MgSO4, 1.25 NaH2PO2, 26 NaHCO3 and 10 glucose and oxygenated with 95% O2/5% CO2. Sagittal 350 μm slices were generated using a vibratome (VT 1000S; Leica Microsystems) and were incubated in standard carboxygenated aCSF (in mM: 125 NaCl, 2.5 KCl, 2 CaCl2, 2 MgSO4, 1.25 NaH2PO2, 26 NaHCO3 and 10 glucose, osmolarity 305 mOsm) at 34° C. during 20 min. The incubation continued at room temperature (RT) for another hour before each slice was transferred to a submerged recording chamber and perfused continuously with carboxygenated aCSF. […]
Dendritic firing rate of CA1 cells was recorded in response to hyperpolarizing and depolarizing steps (−0.4 to +0.45 nA, steps of 0.05 nA) after a 1 hr perfusion with vehicle or compound at 2 μM. […]

mouse brain slices = assay: Afterhyperpolarization of single action potentials in mouse brain slices; format: cell-based; settings: versus vehicle, FIG. 9, p<0.05
Description: FIG. 9 represents a graph plotting the afterhyperpolarization (AHP) amplitude of single action potentials by somatic current clamp recordings using mouse brain slices incubated with vehicle or Compound 6. * indicates p<0.05.
Somatic or dendritic (>200 μm from the soma) current-clamp recordings were performed at RT (24 to 28° C.) and slices were continuously perfused with carboxygenated standard aCSF, supplemented with control or test article REM0043039 at 2 μM. For whole-cell recordings, patch pipettes were filled with a solution containing (in mM) 140 K-gluconate, 5 NaCl, 2 MgCl2, 10 HEPES, 0.5 EGTA, 2 MgATP, 0.4 NaGTP, osmolarity 305, pH adjusted to 7.25 with KOH. The soma or dendrite of large CA1 pyramidal neurons were identified and patch-clamped after visual approach of the recording pipette using a combination of infrared light and differential interference contrast (DIC) optics. […] Recordings were terminated when the series resistances exceeded 40 MO. Signals were digitized and low-pass filtered at 10 kHz. The signal was amplified with an Axopatch 200B amplifier, digitized by a Digidata 155 interface and sampled with Clampex 10 (Molecular Devices, CA). […]
Action potentials (AP) after electrical stimulation of mouse brain slices were analysed (FIG. 9). […]

Row | Structure (SMILES) | EC50 (M17-TAU P301L cells [2]) [ng/mL] | EC50 (M17-TAU P301L cells [1]) [µg/mL] | further results
1 | O=C(NCCc1c[nH]c2ccc(F)cc12)c1cc(Cc2ccc(F)c(F)c2)on1 [Compound 2] | 1.4 | 0.002 (≈ 5.01 nM) | 
2 | COC(=O)C1=C(C)NC(C)=C(C(=O)OC(C)C)C1c1cccc2nonc12 (stereo not shown) [isradepine, reference compound] |  |  | toxicity (LDH leaked into the medium) of RA-incubated cells (M17-TAU P301L cells [1]; FIG. 2, M17-TAU P301L cells with RA): toxicity is reduced
3 | O=C(NCCc1c[nH]c2ccc(F)cc12)c1cc(Cc2ccc(F)cc2F)on1 [Compound 1] | 1 | 0.002 (≈ 5.01 nM) | 

Further lines, with some results ahead:

Row | EC50 (M17-TAU P301L cells [2]) [ng/mL] | Structure (SMILES) | EC50 (M17-TAU P301L cells [1]) [µg/mL] | further results
4 | 4.7 | O=C(NCCc1c[nH]c2ccc(F)cc12)c1cc(Cc2ccccc2F)on1 [Compound 7] | 0.0043 (≈ 11.3 nM) | 
5 | 7.1 | O=C(NCCc1c[nH]c2ccc(F)cc12)c1cc(Cc2cccc(F)c2F)on1 [Compound 5] | 0.0028 (≈ 7.01 nM) | 
6 | 2.4 | O=C(NCCc1c[nH]c2ccc(F)cc12)c1cc(Cc2cc(F)ccc2F)on1 [Compound 6] | 0.0034 (≈ 8.51 nM) | neuronal viability after Aβo challenge [3]: strongly rescued; Ca^2+ influx upon KCl depolarization (VGCC): significantly reduced; TAU phosphorylation in brain extracts (TAU phosphorylation): more effectively reduced TAU phosphorylation; search path during training phase of Morris Water Maze ([4]; FIG. 7A): reduced search path; annulus crossing index score in probe test ([4]; FIG. 7B): higher annulus crossing index score; frequency of action potentials (firing rate) (CA1 pyramidal neurons): significantly lowered the frequency towards wild type level; afterhyperpolarization (AHP) amplitude of action potentials (mouse brain slices): increased
7 | 2.4 | O=C(NCCc1c[nH]c2ccc(F)cc12)c1cc(Cc2cc(F)cc(F)c2)on1 [Compound 3] | 0.0021 (≈ 5.26 nM) | 
8 | 3.5 | O=C(NCCc1c[nH]c2ccc(F)cc12)c1cc(Cc2ccc(F)cc2)on1 [Compound 4] | 0.0022 (≈ 5.77 nM) | 

From patent US11939324B2, “Compounds for the treatment of epilepsy, neurodegenerative disorders and other CNS disorders” (reMYND N.V., priority 2017, dated 2024)
